Usually pKi stands for the negative decadic logarithm of the Ki, by convention in mol/L. By pIC50 is commonly meant −log10 of the IC50, conventionally taken in molar units. By inhibition is commonly meant the change of the read-out against control, counted positive when it falls.

pIC50, pKi: −log10 of the molar value. Calls of active or inactive are those of the source. No cut-off for these calls is given here.

Test [1] is described as follows: Inhibition of Ca2+/CaM kinase II (unknown origin) assessed as inhibition constant. More on the design: species or system Homo sapiens.
Test [2] can be described thus: Inhibition of MLC (unknown origin) assessed as inhibition constant. Also on record: species or system Homo sapiens.
Test [3] in a line: Inhibition of Ca2+/CaM kinase II (unknown origin). Also on record: species or system Homo sapiens.
Test [4] can be described thus: Inhibition of rat brain Ca2+/CaM kinase II independent activity assessed as fold increase in enzyme activity at 50 uM incubated for 1 min.
The species named for another test is Gallus gallus. Briefly: Inhibition of chicken gizzard MLC at 45 uM in presence of [gamma-33P]ATP relative to control.
Test [5] in a line: Inhibition of rat brain Ca2+/CaM kinase II autophosphorylation measured at Pi/mg enzyme after phosphorylation at 50 uM incubated for 5 min in presence of [gamma-33P]ATP.
Test [6] deals with Calcium/calmodulin-dependent protein kinase type II subunit alpha (Rattus norvegicus, UniProt P11275). Briefly: Inhibition of rat brain Ca2+/CaM kinase II alpha subunit autophosphorylation measured after 2 mins in presence of [gamma-33P]ATP by SDS-PAGE analysis. Format: tissue-based.
Calcium/calmodulin-dependent protein kinase type II subunit alpha, sequence (P11275 whole entry): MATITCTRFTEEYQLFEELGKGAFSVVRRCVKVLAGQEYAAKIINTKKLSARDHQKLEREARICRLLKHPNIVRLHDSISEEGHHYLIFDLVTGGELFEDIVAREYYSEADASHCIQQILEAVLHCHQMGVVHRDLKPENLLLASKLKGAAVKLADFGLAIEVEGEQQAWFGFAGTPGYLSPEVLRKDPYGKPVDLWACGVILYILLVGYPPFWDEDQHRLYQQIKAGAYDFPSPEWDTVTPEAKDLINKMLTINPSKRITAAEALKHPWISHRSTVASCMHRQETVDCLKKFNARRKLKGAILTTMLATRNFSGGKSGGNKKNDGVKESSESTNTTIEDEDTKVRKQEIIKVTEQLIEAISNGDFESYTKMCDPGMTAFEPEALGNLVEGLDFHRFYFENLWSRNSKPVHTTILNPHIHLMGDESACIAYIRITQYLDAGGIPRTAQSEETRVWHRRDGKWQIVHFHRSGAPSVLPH
The species entered for test [7] is Rattus norvegicus. In words: Binding affinity to rat brain Ca2+/CaM kinase II in presence of [gamma-33P]ATP by Sepharose coupled chromatography based analysis. Format: tissue-based.
Test [8] addresses cAMP-dependent protein kinase (PKA) (Homo sapiens) (UniProt P22694+P17612+P22612). Briefly: Inhibition of protein kinase A (unknown origin) at 45 uM relative to control. The class given is protein assay.
Test [9] has as its system PC12D. In words: Inhibition of A23187-induced Ca2+/CaM kinase II 53-kDa in [32P] orthophosphate labeled rat PC12D cells assessed as increase in phosphorylation at 0.5 to 1 uM preincubated with compound for 1 hr followed by A23187 induction and measured after 30 mins by immunoprecipitation method. Format: cell-based. The note with it: dose 0.5-1 µM, time 1.5 hrs.
The subject of test [10] is PC12D. Briefly: Inhibition of A23187-induced Ca2+/CaM kinase II 40-kDa in [32P] orthophosphate labeled rat PC12D cells assessed as increase in phosphorylation at 0.5 to 1 uM preincubated with compound for 1 hr followed by A23187 induction and measured after 30 mins by immunoprecipitation method. The note with it: dose 0.5-1 µM, time 1.5 hrs. The class given is cell-based.

Test [11] deals with PC12D. Briefly: Inhibition of A23187-induced Ca2+/CaM kinase II 53-kDa autophosphorylation in [32P] orthophosphate labeled rat PC12D cells preincubated with compound for 1 hr followed by A23187 induction and measured after 30 mins by immunoprecipitation method. The class given is cell-based. The note with it: dose 0.5-1 µM, time 1.5 hrs.
Test [12] is described as follows: Inhibition of rat brain Ca2+/CaM kinase II autophosphorylation assessed as incorporation of 32P into myosin kDa light chain measured at Pi/mg enzyme at 50 uM incubated for 1 min in presence of [gamma-33P]ATP.
For a further test, the species on record is Homo sapiens. In words: Inhibition of Ca2+/CaM kinase II (unknown origin) at 1 uM in presence of [gamma-33P]ATP relative to control.
The species named for test [13] is Rattus norvegicus. Briefly: Competitive inhibition of rat brain Ca2+/CaM kinase II at 0.5 to 2.5 uM in presence of calmodulin and varying concentration of [gamma-33P]ATP. The note with it: dose 0.5-2.5 µM. The class given is tissue-based.
Test [14] in a line: Competitive inhibition of rat brain Ca2+/CaM kinase II assessed as inhibition constant in presence of [gamma-33P]ATP and varying concentration of calmodulin. The class given is tissue-based.
For test [15], the species on record is Rattus norvegicus. Briefly: Inhibition of rat brain Ca2+/CaM kinase II autophosphorylation assessed as decrease in exogenous substrate phosphorylation at 50 uM incubated for 1 min in presence of [gamma-33P]ATP measured after phosphorylation. The class given is tissue-based.
A short description of test [16]: Inhibition of rat brain Ca2+/CaM kinase II autophosphorylation assessed as decrease in exogenous substrate phosphorylation at 50 uM incubated for 1 min in presence of [gamma-33P]ATP relative to control. Also on record: scale not given: the % may be the effect or the level left.
Test [17] addresses Calcium/calmodulin-dependent protein kinase type II subunit beta (Rattus norvegicus, UniProt P08413). In words: Inhibition of rat brain Ca2+/CaM kinase II beta subunit autophosphorylation measured after 2 mins in presence of [gamma-33P]ATP by SDS-PAGE analysis. The class given is tissue-based.
Test [18] concerns the target Protein kinase C (PKC) (Homo sapiens) (UniProt O94806+P41743+P17252+P05129+Q05655+P05771+Q05513+Q02156+P24723+Q15139+Q04759). In words: Inhibition of protein kinase C (unknown origin) at 45 uM relative to control. Format: protein assay.

Calcium/calmodulin-dependent protein kinase type II subunit beta, sequence (P08413 whole entry): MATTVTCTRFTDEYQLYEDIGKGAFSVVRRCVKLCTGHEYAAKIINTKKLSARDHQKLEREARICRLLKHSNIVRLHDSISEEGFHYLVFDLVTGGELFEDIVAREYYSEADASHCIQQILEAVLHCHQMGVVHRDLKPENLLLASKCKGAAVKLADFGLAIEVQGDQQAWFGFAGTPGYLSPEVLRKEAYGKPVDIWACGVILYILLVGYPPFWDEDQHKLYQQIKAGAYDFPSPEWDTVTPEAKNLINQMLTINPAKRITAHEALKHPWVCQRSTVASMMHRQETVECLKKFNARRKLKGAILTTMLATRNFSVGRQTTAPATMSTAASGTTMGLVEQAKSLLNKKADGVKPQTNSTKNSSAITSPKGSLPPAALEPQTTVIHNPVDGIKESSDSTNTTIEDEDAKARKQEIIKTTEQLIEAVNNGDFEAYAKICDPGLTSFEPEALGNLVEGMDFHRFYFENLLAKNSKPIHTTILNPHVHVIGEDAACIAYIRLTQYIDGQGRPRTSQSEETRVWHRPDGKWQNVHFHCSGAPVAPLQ

Regarding `NCCCCCCNS(=O)(=O)c1cccc2c(Cl)cccc12`, the pKi in test [1] is 5.12; in test [2], 4.74. In [3], this compound gave a pIC50 of 4.82.
With `CN([C@@H](Cc1ccc(OS(=O)(=O)c2cccc3cnccc23)cc1)C(=O)N1CCN(c2ccccc2)CC1)S(=O)(=O)c1cccc2cnccc12`, in test [4], the “fold change (FC)” value is listed as 2.5. For the same compound, the inhibition in the test filed under Gallus gallus is 12%; in test [8] it was 22%; with PC12D [11], “Dose-Dependent Effect”; in the test filed under Homo sapiens, 80%; in test [18], 12%. Further, the Activity amounted to 8.1 nmol in test [5], 1.8 nmol in [12] and 75% in [16]. Moreover, the pIC50 was 6.35 in [6] and 6.00 in test [17]. In addition, the result in the test filed under Rattus norvegicus [7] and in the test on PC12D [9] was Active. Further, the result with PC12D [10] and in the test listed under Rattus norvegicus [15] was inactive. For the same compound, the inhibition result in the test listed under Rattus norvegicus [13] is “inactive”. For the same compound, the pKi in test [14] is 6.05.

The values are drawn from ChEMBL document CHEMBL5653607, “KN-62, 1-[N,O-bis(5-isoquinolinesulfonyl)-N-methyl-L-tyrosyl]-4-phenylpiperazi ne, a specific inhibitor of Ca2+/calmodulin-dependent protein kinase II” (J Biol Chem, 1990).
